Key:
HSP90α = target: T1, HSP90α (Homo sapiens, UniProt P07900); test: HSP90 inhibition assay, FITC-geldanamycin competition fluorescence polarization, HSP90α; format: binding; conditions: FITC-GM competition
T1 construct: Reaction Biology Corporation (ran the assay as a service)

[1] = system: colorectal cancer tumors (CT26); test: CT26 tumor model, Compound 75 and Anti-PD1 alone and combined; format: in vivo
CT26 tumor recurrence = CT26 tumor recurrence after tumor removal and re-inoculation; format: in vivo, mouse; conditions: 50 mg/kg every two days, day 37
Method: (§1) Stage 1: CT26 was injected subcutaneously into the left dorsum of immunocompetent mice (BALB/c), and Compound 75 treatment was started after 3 days, administered intravenously at a dose of 50 mg/kg every two days (7 doses in total). After tumor removal, tumor cells were isolated for in vitro culture (untreated tumor control-tumor; Compound 75-treated tumor: Compound 75-tumor). Stage 2: On day 17, the isolated tumor cells were injected subcutaneously into the right side of the mouse back and the mice were sacrificed on day 37 (as shown in FIG. 14A). […] Data are mean t S.E.M. N values greater than 4.
Whether Compound 75 induces the performance of memory T cells to prevent tumor recurrence was further investigated. Mouse colorectal cancer cells (CT26) were inoculated into the back of immunocompetent mice (BALB/c) and gave control or Compound 75 (50 mg/kg) every two days after 3 days, and removed the tumors on day 14. The cancer cells were isolated and cultured in vitro. The isolated cancer cells were re-injected into the back of the mice on day 17 and the mice were sacrificed on day 37 (FIG. 14A). […] However, in the control group (control/control-tumor), 4 out of 5 cancer recurrences occurred and the tumors were larger (FIGS. 14B, 14C and 14D).

[2] = system: central memory T cells (TCM) in the spleen; test: Central memory T cells in spleen by flow cytometry; format: in vivo, mouse
Method: as §1

[3] = Anti-PD1 combination study, Compound 75 50 mg/kg/2 days

SMILES: COc1ccc(N(Cc2ccc(C(=O)NO)cc2)C(=O)c2cc(C(C)C)c(O)cc2O)cc1 [Compound 75, 2,4-Dihydroxy-N-(4-hydroxycarbamoyl-benzyl)-5-isopropyl-N-(4-methoxy-phenyl)-benzamide]
- IC50 (HSP90α): 0.052 µM
- body weight [1, 3]: no significant change in body weight
- toxicity to mice [1, 3]: not significantly toxic
- treatment effect on CT26 tumor, agent alone ([1]; Compound 75 50 mg/kg/2 days or Anti-PD1 200 μg alone): limited
- tumor growth, combined treatment with Anti-PD1 ([1]; Compound 75 50 mg/kg/2 days plus Anti-PD1 200 μg): significantly inhibited tumor growth
- cancer recurrence, re-inoculated with Compound 75-treated cancer cells (CT26 tumor recurrence; group comp.75/comp.75-tumor): only one mouse suffered cancer recurrence
- cancer recurrence, re-inoculated with control cancer cells (CT26 tumor recurrence; group comp.75/control-tumor): only one mouse suffered cancer recurrence
- percentage of central memory T cells [2]: significantly increased

Reference: patent US20240398823A1, “DUAL INHIBITOR OF HISTONE DEACETYLASE 6 AND HEAT SHOCK PROTEIN 90” (TAIPEI MEDICAL UNIVERSITY, priority 2021, published 2024)
